Data taken from ChEMBL document CHEMBL3880422, “C-terminal modified oxamyl dipeptides as inhibitors of the ICE/ced-3 family of cysteine proteases” (2007).
Where a SMILES comes first, the peptide text is derived from it. The star is where a group is joined. Cbz = O=C(OCc1ccccc1)*; CH2F = FC*

Experiments:
Caspase-1 (Mus musculus) = target: T1, Caspase-1 (Mus musculus) (UniProt P29452); assay: (§1) Inhibition of mouse recombinant ICE assessed as ratio of irreversible rate constant K3 to dissociation constant of the reversible binding step Ki pre-incubated for 60 mins with Acetyl-Tyr-Val-Ala-Asp-amino-4-methylcoumarin substrate followed by enzyme addition by fluorescence based assay
T1 sequence (whole entry): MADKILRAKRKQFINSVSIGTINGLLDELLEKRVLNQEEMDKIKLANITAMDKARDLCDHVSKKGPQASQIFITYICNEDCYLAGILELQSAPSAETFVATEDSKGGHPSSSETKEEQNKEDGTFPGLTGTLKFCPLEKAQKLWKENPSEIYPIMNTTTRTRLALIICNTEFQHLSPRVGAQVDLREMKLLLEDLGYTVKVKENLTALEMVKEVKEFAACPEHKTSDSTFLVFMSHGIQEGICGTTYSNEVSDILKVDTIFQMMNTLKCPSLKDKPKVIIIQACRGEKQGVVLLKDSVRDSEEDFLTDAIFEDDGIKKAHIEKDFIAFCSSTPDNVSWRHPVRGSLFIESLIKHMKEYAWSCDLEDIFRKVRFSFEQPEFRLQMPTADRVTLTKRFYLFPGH

Caspase-3 (Homo sapiens) = target: T2, Caspase-3 (Homo sapiens) (UniProt P42574); assay: as §1, with “of” for “of mouse”, “CPP32 (unknown origin)” for “ICE”
T2 sequence (whole entry): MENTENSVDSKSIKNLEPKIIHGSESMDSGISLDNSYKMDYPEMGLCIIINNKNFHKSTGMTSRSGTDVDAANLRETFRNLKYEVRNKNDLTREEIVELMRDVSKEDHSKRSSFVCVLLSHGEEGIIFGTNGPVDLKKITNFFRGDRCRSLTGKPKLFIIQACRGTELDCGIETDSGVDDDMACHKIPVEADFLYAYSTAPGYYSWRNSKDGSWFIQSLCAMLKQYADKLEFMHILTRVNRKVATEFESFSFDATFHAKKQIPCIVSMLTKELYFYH

Caspase-6 (Homo sapiens) = target: T3, Caspase-6 (Homo sapiens) (UniProt P55212); assay: Inhibition of recombinant MCH2 (unknown origin) assessed as ratio of irreversible rate constant K3 to dissociation constant of the reversible binding step Ki pre-incubated for 60 mins with Acetyl-Tyr-Val-Ala-Asp-amino-4-methylcoumarin substrate followed by enzyme addition by fluorescence based assay
T3 sequence (whole entry): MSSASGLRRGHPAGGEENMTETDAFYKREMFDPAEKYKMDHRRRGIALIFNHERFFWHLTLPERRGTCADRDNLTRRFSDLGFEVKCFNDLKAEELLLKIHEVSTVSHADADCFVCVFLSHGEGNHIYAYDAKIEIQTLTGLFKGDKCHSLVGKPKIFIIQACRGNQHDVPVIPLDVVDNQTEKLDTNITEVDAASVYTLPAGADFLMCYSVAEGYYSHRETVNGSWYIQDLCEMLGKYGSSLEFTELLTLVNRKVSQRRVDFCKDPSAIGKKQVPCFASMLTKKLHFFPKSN

Caspase-8 (Homo sapiens) = Caspase-8 (Homo sapiens) (UniProt Q14790); assay: Inhibition of recombinant MCH5 (unknown origin) assessed as ratio of irreversible rate constant K3 to dissociation constant of the reversible binding step Ki pre-incubated for 60 mins with Acetyl-Tyr-Val-Ala-Asp-amino-4-methylcoumarin substrate followed by enzyme addition by fluorescence based assay
Sequence of Caspase-8 (Homo sapiens) (Q14790 217-374 limits assumed): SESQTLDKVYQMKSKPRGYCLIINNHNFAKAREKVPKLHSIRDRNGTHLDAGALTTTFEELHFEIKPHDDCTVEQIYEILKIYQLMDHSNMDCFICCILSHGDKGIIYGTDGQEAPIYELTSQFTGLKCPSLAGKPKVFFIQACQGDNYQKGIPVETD
Sequence of Caspase-8 (Homo sapiens) (Q14790 385-479 limits assumed): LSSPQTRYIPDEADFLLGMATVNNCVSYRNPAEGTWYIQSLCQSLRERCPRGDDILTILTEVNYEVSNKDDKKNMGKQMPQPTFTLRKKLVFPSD

Structure (SMILES) | Ratio (Caspase-1 (Mus musculus)) | Ratio (Caspase-3 (Homo sapiens)) | Ratio (Caspase-6 (Homo sapiens)) | Ratio (Caspase-8 (Homo sapiens))
C[C@H](NC(=O)C(=O)Nc1ccccc1C(C)(C)C)C(=O)N[C@@H](CC(=O)O)C(=O)COC(=O)c1c(Cl)cccc1Cl | 43300 to 537000 M⁻¹ s⁻¹ | 62900 to 142000 M⁻¹ s⁻¹ | 6960 to 191000 M⁻¹ s⁻¹ | 30200 to 39100 M⁻¹ s⁻¹
CC(C)[C@H](NC(=O)C(=O)Nc1c(F)c(F)nc(F)c1F)C(=O)N[C@@H](CC(=O)O)C(=O)COc1c(F)c(F)cc(F)c1F | 1.22e+06 M⁻¹ s⁻¹ | 153000 M⁻¹ s⁻¹ | 170000 M⁻¹ s⁻¹ | 389000 M⁻¹ s⁻¹
C[C@H](NC(=O)C(=O)Nc1ccccc1-c1ccccc1)C(=O)N[C@@H](CC(=O)O)C(=O)COC(=O)c1c(Cl)cccc1Cl | 259000 M⁻¹ s⁻¹ | 388000 M⁻¹ s⁻¹ | 219000 M⁻¹ s⁻¹ | 125000 M⁻¹ s⁻¹
CC(C)[C@H](NC(=O)C(=O)Nc1cccc2ccccc12)C(=O)NC(CC(=O)O)C(=O)CF (mixture of isomers) | 2.17e+06 M⁻¹ s⁻¹ | 413000 M⁻¹ s⁻¹ | 199000 M⁻¹ s⁻¹ | 1.16e+06 M⁻¹ s⁻¹
CC(C)[C@H](NC(=O)C(=O)Nc1cccc2ccccc12)C(=O)N[C@@H](CC(=O)O)C(=O)COc1c(F)cc(F)cc1F | 879000 M⁻¹ s⁻¹ |  | 37400 M⁻¹ s⁻¹ | 
CC(C)[C@H](NC(=O)C(=O)Nc1nc2ccccc2[nH]1)C(=O)N[C@@H](CC(=O)O)C(=O)COc1c(F)c(F)cc(F)c1F | 27400 M⁻¹ s⁻¹ | 3130 M⁻¹ s⁻¹ | 1840 M⁻¹ s⁻¹ | 20800 M⁻¹ s⁻¹
CC(C)[C@H](NC(=O)C(=O)Nc1cccc2ccccc12)C(=O)N[C@@H](CC(=O)O)C(=O)COc1ccc(O)cc1 | 1.84e+06 M⁻¹ s⁻¹ | 286000 M⁻¹ s⁻¹ | 69100 M⁻¹ s⁻¹ | 625000 M⁻¹ s⁻¹
CC(C)[C@H](NC(=O)C(=O)Nc1c(F)cccc1F)C(=O)N[C@@H](CC(=O)O)C(=O)COc1c(F)c(F)cc(F)c1F | 2.68e+06 M⁻¹ s⁻¹ | 62900 M⁻¹ s⁻¹ | 1.08e+06 M⁻¹ s⁻¹ | 1.83e+06 M⁻¹ s⁻¹
C[C@H](NC(=O)C(=O)Nc1ccccc1C(C)(C)C)C(=O)N[C@@H](CC(=O)O)C(=O)COc1ccccc1F | 442000 M⁻¹ s⁻¹ | 67700 M⁻¹ s⁻¹ | 54900 M⁻¹ s⁻¹ | 119000 M⁻¹ s⁻¹
CC(C)[C@H](NC(=O)C(=O)Nc1ccccc1Cl)C(=O)N[C@@H](CC(=O)O)C(=O)COc1c(F)c(F)cc(F)c1F | 1.54e+06 M⁻¹ s⁻¹ | 96300 M⁻¹ s⁻¹ | 161000 M⁻¹ s⁻¹ | 234000 M⁻¹ s⁻¹
C[C@H](NC(=O)C(=O)Nc1ccccc1Cl)C(=O)N[C@@H](CC(=O)O)C(=O)COP(=O)(c1ccccc1)c1ccccc1 | 103000 to 1.98e+06 M⁻¹ s⁻¹ | 162000 to 564000 M⁻¹ s⁻¹ | 247000 to 373000 M⁻¹ s⁻¹ | 179000 to 2.33e+06 M⁻¹ s⁻¹
CC(C)[C@H](NC(=O)C(=O)NCCc1ccccc1)C(=O)N[C@@H](CC(=O)O)C(=O)COc1c(F)c(F)cc(F)c1F | 77100 M⁻¹ s⁻¹ | 13400 M⁻¹ s⁻¹ | 12600 M⁻¹ s⁻¹ | 16600 M⁻¹ s⁻¹
CC(C)[C@H](NC(=O)C(=O)NC(c1ccccc1)c1ccccc1)C(=O)N[C@@H](CC(=O)O)C(=O)COc1c(F)c(F)cc(F)c1F | 201000 M⁻¹ s⁻¹ | 5380 M⁻¹ s⁻¹ | 1430 M⁻¹ s⁻¹ | 48600 M⁻¹ s⁻¹
CC(C)[C@H](NC(=O)C(=O)Nc1ccccc1C(F)(F)F)C(=O)N[C@@H](CC(=O)O)C(=O)COc1c(F)c(F)cc(F)c1F | 1.04e+06 M⁻¹ s⁻¹ | 57400 M⁻¹ s⁻¹ | 261000 M⁻¹ s⁻¹ | 41000 M⁻¹ s⁻¹
C[C@H](NC(=O)C(=O)Nc1cc(C(C)(C)C)ccc1C(C)(C)C)C(=O)N[C@@H](CC(=O)O)C(=O)COc1c(F)c(F)cc(F)c1F | 195000 M⁻¹ s⁻¹ | 221000 M⁻¹ s⁻¹ | 192000 M⁻¹ s⁻¹ | 248000 M⁻¹ s⁻¹
CC(C)[C@H](NC(=O)C(=O)Nc1ccc(F)cc1)C(=O)N[C@@H](CC(=O)O)C(=O)COc1c(F)c(F)cc(F)c1F | 906000 M⁻¹ s⁻¹ | 36300 M⁻¹ s⁻¹ | 121000 M⁻¹ s⁻¹ | 338000 M⁻¹ s⁻¹
CC(C)[C@H](NC(=O)C(=O)Nc1cccc2ccccc12)C(=O)N[C@@H](CC(=O)O)C(=O)COc1c(-c2ccccc2)oc2ccccc2c1=O | 82100 M⁻¹ s⁻¹ | 43600 M⁻¹ s⁻¹ | 0 M⁻¹ s⁻¹ | 0 M⁻¹ s⁻¹

Structure (SMILES) | Ratio (Caspase-1 (Mus musculus)) | Ratio (Caspase-3 (Homo sapiens)) | Ratio (Caspase-6 (Homo sapiens)) | Ratio (Caspase-8 (Homo sapiens))
C[C@H](NC(=O)C(=O)Nc1cc(C(C)(C)C)ccc1C(C)(C)C)C(=O)N[C@@H](CC(=O)O)C(=O)COP(=O)(c1ccccc1)c1ccccc1 | 211000 M⁻¹ s⁻¹ | 104000 M⁻¹ s⁻¹ | 308000 M⁻¹ s⁻¹ | 1.34e+06 M⁻¹ s⁻¹
CC(C)[C@H](NC(=O)OCc1ccccc1)C(=O)N[C@@H](C)C(=O)N[C@@H](CC(=O)O)C(=O)CF (Cbz-Val-Ala-Asp-CH2F) | 214000 M⁻¹ s⁻¹ | 12200 M⁻¹ s⁻¹ | 2950 M⁻¹ s⁻¹ | 83300 M⁻¹ s⁻¹
CC(C)[C@H](NC(=O)C(=O)Nc1cccc2ccccc12)C(=O)N[C@@H](CC(=O)O)C(=O)COc1cccc2ccccc12 | 254000 M⁻¹ s⁻¹ | 180000 M⁻¹ s⁻¹ | 83700 M⁻¹ s⁻¹ | 177000 M⁻¹ s⁻¹
C[C@H](NC(=O)C(=O)NCc1ccccc1)C(=O)N[C@@H](CC(=O)O)C(=O)COC(=O)c1c(Cl)cccc1Cl | 59100 M⁻¹ s⁻¹ | 600000 M⁻¹ s⁻¹ | 244000 M⁻¹ s⁻¹ | 203000 M⁻¹ s⁻¹
C[C@H](NC(=O)C(=O)NCc1cccc2ccccc12)C(=O)N[C@@H](CC(=O)O)C(=O)COP(=O)(c1ccccc1)c1ccccc1 | 191000 M⁻¹ s⁻¹ | 245000 M⁻¹ s⁻¹ | 186000 M⁻¹ s⁻¹ | 82700 M⁻¹ s⁻¹
C[C@H](NC(=O)C(=O)NCc1ccccc1)C(=O)N[C@@H](CC(=O)O)C(=O)COc1c(F)c(F)cc(F)c1F | 13900 M⁻¹ s⁻¹ | 54300 M⁻¹ s⁻¹ | 42800 M⁻¹ s⁻¹ | 23100 M⁻¹ s⁻¹
CCCOc1ccc(OCC(=O)[C@H](CC(=O)O)NC(=O)[C@@H](NC(=O)C(=O)Nc2cccc3ccccc23)C(C)C)cc1 | 825000 M⁻¹ s⁻¹ | 167000 M⁻¹ s⁻¹ | 63000 M⁻¹ s⁻¹ | 286000 M⁻¹ s⁻¹
C[C@H](NC(=O)C(=O)NCc1cccc2ccccc12)C(=O)N[C@@H](CC(=O)O)C(=O)COc1c(F)c(F)cc(F)c1F | 2.59e+06 M⁻¹ s⁻¹ | 158000 M⁻¹ s⁻¹ | 335000 M⁻¹ s⁻¹ | 1.26e+06 M⁻¹ s⁻¹
C[C@H](NC(=O)C(=O)NC1CCCCC1)C(=O)N[C@@H](CC(=O)O)C(=O)COP(=O)(c1ccccc1)c1ccccc1 | 2.03e+06 M⁻¹ s⁻¹ | 137000 M⁻¹ s⁻¹ | 97500 M⁻¹ s⁻¹ | 1.79e+06 M⁻¹ s⁻¹
CC(C)[C@H](NC(=O)C(=O)Nc1cnccn1)C(=O)N[C@@H](CC(=O)O)C(=O)COc1c(F)c(F)cc(F)c1F | 2.57e+06 M⁻¹ s⁻¹ |  | 175000 M⁻¹ s⁻¹ | 1.83e+06 M⁻¹ s⁻¹
C[C@H](NC(=O)C(=O)Nc1ccc(F)cc1)C(=O)N[C@@H](CC(=O)O)C(=O)COC(=O)c1c(Cl)cccc1Cl | 11700 M⁻¹ s⁻¹ | 22700 M⁻¹ s⁻¹ | 18600 M⁻¹ s⁻¹ | 18700 M⁻¹ s⁻¹
C[C@H](NC(=O)C(=O)Nc1ccccc1I)C(=O)N[C@@H](CC(=O)O)C(=O)COP(=O)(c1ccccc1)c1ccccc1 | 36300 M⁻¹ s⁻¹ | 78300 M⁻¹ s⁻¹ | 66200 M⁻¹ s⁻¹ | 46300 M⁻¹ s⁻¹
C[C@H](NC(=O)C(=O)NCc1cccc2ccccc12)C(=O)N[C@@H](CC(=O)O)C(=O)COC(=O)c1c(Cl)cccc1Cl | 1.16e+06 M⁻¹ s⁻¹ | 187000 M⁻¹ s⁻¹ | 214000 M⁻¹ s⁻¹ | 936000 M⁻¹ s⁻¹
CC(C)[C@H](NC(=O)C(=O)Nc1ccccc1I)C(=O)N[C@@H](CC(=O)O)C(=O)COc1c(F)c(F)cc(F)c1F | 1.26e+06 M⁻¹ s⁻¹ | 42300 M⁻¹ s⁻¹ | 137000 M⁻¹ s⁻¹ | 1.03e+06 M⁻¹ s⁻¹
CCCCCCCc1ccc(NC(=O)C(=O)N[C@H](C(=O)N[C@@H](CC(=O)O)C(=O)COc2c(F)c(F)cc(F)c2F)C(C)C)cc1 | 657000 M⁻¹ s⁻¹ | 11200 M⁻¹ s⁻¹ | 50000 M⁻¹ s⁻¹ | 155000 M⁻¹ s⁻¹
CC(C)[C@H](NC(=O)C(=O)Nc1cccc2ccccc12)C(=O)N[C@@H](CC(=O)O)C(=O)COC(=O)c1c(Cl)cccc1Cl | 1.05e+06 M⁻¹ s⁻¹ |  | 234000 M⁻¹ s⁻¹ | 
